Measured values as given in patent publication US9211310B2, “Use of a Chinese medicine composition in preparing medicaments for treating secondary prevention of myocardial infarction” (TASLY PHARMACEUTICAL GROUP CO., LTD, priority 2010, dated 2015).

Test system: patients after acute myocardial infarction
Experiment: Life quality, Seattle Angina Questionnaire (SAQ), same clinical trial
Type: in vivo, human
Description: 3508 patients who were in accordance with the diagnostic standards of AMI for 28 days to 2 years and differentiated as Qi deficiency and blood stagnation syndrome by TCM were studied. 0.5 g Chinese medicine composition prepared by the method of EXAMPLE 1 (Coded as QSYQ) was administrated half an hour after meal, 3 times per day.
There were 19 questions in the Seattle angina questionnaire (SAQ), including 5 parts: physical limitation (PL), anginal stability (AS), anginal frequency (AF), treatment satisfaction (TS) and disease perception (DP). After being given necessary explanation by doctors, the questions were answered independently by patients.
They included the overall survival time, angina pectoris score, TCM symptom score and life quality score, where angina pectoris score, TCM symptom score and life quality score were evaluated at randomization, in 1st, 3rd, 6th, 9th, 12th month after treatment and 18th month after follow-up.
All evaluation results of SAQ were described during the period of observation, and Wilcoxon rank sum test was used for inter-group comparison.
The evaluation results in the SAQ were depicted in different observations, and inter-group comparison was tested by Wilcoxon Rank-sum test.

Compound: CC(=O)Oc1ccccc1C(=O)O [Control group, aspirine]
- SAQ Question 1-5: Slightly limited, percent of patients (12 months after treatment, PP): (29.70%)
- SAQ Question 1-9: Mildly limited, % of cases (12 months after treatment, PP): (20.07%)
- SAQ Question 1-9: Mildly limited, cases (12 months after treatment, PP): 278
- SAQ Question 1-9: Moderately limited, % of cases (12 months after treatment, PP): (20.87%)
- SAQ Question 1-9: Moderately limited, cases (12 months after treatment, PP): 289
- SAQ Question 1-9: Not limited, % of cases (12 months after treatment, PP): (5.05%)
- SAQ Question 1-9: Not limited, cases (12 months after treatment, PP): 70
- SAQ Question 1-9: Other reasons, % of cases (12 months after treatment, PP): (6.28%)
- SAQ Question 1-9: Other reasons, cases (12 months after treatment, PP): 87
- SAQ Question 1-9: Severely limited, % of cases (12 months after treatment, PP): (29.75%)
- SAQ Question 1-9: Severely limited, cases (12 months after treatment, PP): 412
- SAQ Question 1-9: Slightly limited, % of cases (12 months after treatment, PP): (17.98%)
- SAQ Question 1-9: Slightly limited, cases (12 months after treatment, PP): 249
- SAQ 2nd question: Clearly increased, % of cases (Baseline, FAS): (3.17%)
- SAQ 2nd question: Clearly increased, cases (Baseline, FAS): 55
- SAQ 2nd question: Clearly reduced, % of cases (Baseline, FAS): (12.46%)
- SAQ 2nd question: Clearly reduced, cases (Baseline, FAS): 216
- SAQ 2nd question: Same, % of cases (Baseline, FAS): (62.09%)
- SAQ 2nd question: Same, cases (Baseline, FAS): 1076
- SAQ 2nd question: Slightly increased, % of cases (Baseline, FAS): (6.92%)
- SAQ 2nd question: Slightly increased, cases (Baseline, FAS): 120
- SAQ 2nd question: Slightly reduced, % of cases (Baseline, FAS): (15.35%)
- SAQ 2nd question: Slightly reduced, cases (Baseline, FAS): 266
- SAQ 3rd question: 1-2 times per week, % of cases (Baseline, FAS): (15.35%)
- SAQ 3rd question: 1-2 times per week, cases (Baseline, FAS): 266
- SAQ 3rd question: 1-3 times per day, % of cases (Baseline, FAS): (6.92%)
- SAQ 3rd question: 1-3 times per day, cases (Baseline, FAS): 120
- SAQ 3rd question: <1 time per week, % of cases (Baseline, FAS): (12.46%)
- SAQ 3rd question: <1 time per week, cases (Baseline, FAS): 216
- SAQ 3rd question: No onset, % of cases (Baseline, FAS): (0.00%)
- SAQ 3rd question: No onset, cases (Baseline, FAS): 0
- SAQ 3rd question: ≧3 times per week, % of cases (Baseline, FAS): (62.09%)
- SAQ 3rd question: ≧3 times per week, cases (Baseline, FAS): 1076
- SAQ 3rd question: ≧4 times per day, % of cases (Baseline, FAS): (3.17%)
- SAQ 3rd question: ≧4 times per day, cases (Baseline, FAS): 55
- SAQ Question 1-3: Mildly limited, number of patients (Baseline, FAS): 149
- SAQ Question 1-3: Mildly limited, percent of patients (Baseline, FAS): (8.57%)
- SAQ Question 1-3: Moderately limited, number of patients (Baseline, FAS): 53
- SAQ Question 1-3: Moderately limited, percent of patients (Baseline, FAS): (3.05%)
- SAQ Question 1-3: Not limited, number of patients (Baseline, FAS): 1170
- SAQ Question 1-3: Not limited, percent of patients (Baseline, FAS): (67.32%)
- SAQ Question 1-3: Other reasons, number of patients (Baseline, FAS): 11
- SAQ Question 1-3: Other reasons, percent of patients (Baseline, FAS): (0.63%)
- SAQ Question 1-3: Severely limited, number of patients (Baseline, FAS): 15
- SAQ Question 1-3: Severely limited, percent of patients (Baseline, FAS): (0.86%)
- SAQ Question 1-3: Slightly limited, number of patients (Baseline, FAS): 340
- SAQ Question 1-3: Slightly limited, percent of patients (Baseline, FAS): (19.56%)
- SAQ Question 1-4: Mildly limited, number of patients (Baseline, FAS): 402
- SAQ Question 1-4: Mildly limited, percent of patients (Baseline, FAS): (23.21%)
- SAQ Question 1-4: Moderately limited, number of patients (Baseline, FAS): 208
- SAQ Question 1-4: Moderately limited, percent of patients (Baseline, FAS): (12.01%)
- SAQ Question 1-4: Not limited, number of patients (Baseline, FAS): 495
- SAQ Question 1-4: Not limited, percent of patients (Baseline, FAS): (28.58%)
- SAQ Question 1-4: Other reasons, number of patients (Baseline, FAS): 14
- SAQ Question 1-4: Other reasons, percent of patients (Baseline, FAS): (0.81%)
- SAQ Question 1-4: Severely limited, number of patients (Baseline, FAS): 59
- SAQ Question 1-4: Severely limited, percent of patients (Baseline, FAS): (3.41%)
- SAQ Question 1-4: Slightly limited, number of patients (Baseline, FAS): 554
- SAQ Question 1-4: Slightly limited, percent of patients (Baseline, FAS): (31.99%)
- SAQ Question 1-5: Mildly limited, number of patients (Baseline, FAS): 357
- SAQ Question 1-5: Mildly limited, percent of patients (Baseline, FAS): (20.58%)
- SAQ Question 1-5: Moderately limited, number of patients (Baseline, FAS): 238
- SAQ Question 1-5: Moderately limited, percent of patients (Baseline, FAS): (13.72%)
- SAQ Question 1-5: Not limited, number of patients (Baseline, FAS): 567
- SAQ Question 1-5: Not limited, percent of patients (Baseline, FAS): (32.68%)
- SAQ Question 1-5: Other reasons, number of patients (Baseline, FAS): 13
- SAQ Question 1-5: Other reasons, percent of patients (Baseline, FAS): (0.75%)
- SAQ Question 1-5: Severely limited, number of patients (Baseline, FAS): 53
- SAQ Question 1-5: Severely limited, percent of patients (Baseline, FAS): (3.05%)
- SAQ Question 1-5: Slightly limited, number of patients (Baseline, FAS): 507
- SAQ Question 1-5: Slightly limited, percent of patients (Baseline, FAS): (29.22%)
- SAQ Question 1-9: Mildly limited, % of cases (Baseline, FAS): (14.70%)
- SAQ Question 1-9: Mildly limited, cases (Baseline, FAS): 249
- SAQ Question 1-9: Moderately limited, % of cases (Baseline, FAS): (21.19%)
- SAQ Question 1-9: Moderately limited, cases (Baseline, FAS): 359
- SAQ Question 1-9: Not limited, % of cases (Baseline, FAS): (2.36%)
- SAQ Question 1-9: Not limited, cases (Baseline, FAS): 40
